Reference: PubChem BioAssay (NCI)
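All cell lines were grown in 96-well plates and treated with compound for 48 hours. TGI is the concentration that stops growth completely.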

Tests used:
Test in all cases: growth of human tumour cells (NCI), 48 h
[1] = test system: 786-0 renal
[2] = test system: A498 renal
[3] = test system: A549 NSCLC
[4] = test system: ACHN renal
[5] = test system: BT-549 breast
[6] = test system: CAKI-1 renal
[7] = test system: CCRF-CEM leukemia
[8] = test system: COLO 205 colon
[9] = test system: DU-145 prostate
[10] = test system: EKVX NSCLC
[11] = test system: HCC-2998 colon
[12] = test system: HCT-116 colon
[13] = test system: HCT-15 colon
[14] = test system: HL-60(TB) leukemia
[15] = test system: HOP-62 NSCLC
[16] = test system: HOP-92 NSCLC
[17] = test system: HS 578T breast
[18] = test system: HT29 colon
[19] = test system: IGROV1 ovarian
[20] = test system: K-562 leukemia
[21] = test system: KM12 colon
[22] = test system: LOX IMVI melanoma
[23] = test system: M14 melanoma
[24] = test system: MALME-3M melanoma
[25] = test system: MCF7 breast
[26] = test system: MDA-MB-231 breast
[27] = test system: MDA-MB-435
[28] = test system: MDA-N
[29] = test system: MOLT-4 leukemia
[30] = test system: NCI-H226 lung
[31] = test system: NCI-H23 lung
[32] = test system: NCI-H460 lung
[33] = test system: NCI-H522 lung
[34] = test system: NCI/ADR-RES ovarian
[35] = test system: OVCAR-3 ovarian
[36] = test system: OVCAR-4 ovarian
[37] = test system: OVCAR-5 ovarian
[38] = test system: OVCAR-8 ovarian
[39] = test system: PC-3 prostate
[40] = test system: RPMI-8226 leukemia
[41] = test system: RXF 393 renal
[42] = test system: SF-268 CNS
[43] = test system: SF-295 CNS
[44] = test system: SF-539 CNS
[45] = test system: SK-MEL-2 melanoma
[46] = test system: SK-MEL-28 melanoma
[47] = test system: SK-MEL-5 melanoma
[48] = test system: SK-OV-3 ovarian
[49] = test system: SN12C renal
[50] = test system: SNB-19 CNS
[51] = test system: SNB-75 CNS
[52] = test system: SR leukemia
[53] = test system: SW-620 colon
[54] = test system: T-47D breast
[55] = test system: TK-10 renal
[56] = test system: U251 CNS
[57] = test system: UACC-257 melanoma
[58] = test system: UACC-62 melanoma
[59] = test system: UO-31 renal

## COC(=O)c1cc2c(cc1CC(Cc1ccc3c(c1)CCC3)C(=O)OC)CCC2 (centres undefined)
[1]
  TGI: > 100 µM
[2]
  TGI: > 100 µM
[3]
  TGI: > 100 µM
[4]
  TGI: > 100 µM
[5]
  TGI: > 100 µM
[6]
  TGI: > 100 µM
[7]
  TGI: > 100 µM
[8]
  TGI: > 100 µM
[9]
  TGI: > 100 µM
[10]
  TGI: > 100 µM
[11]
  TGI: > 100 µM
[12]
  TGI: > 100 µM
[13]
  TGI: > 100 µM
[14]
  TGI: 31.1 µM
[15]
  TGI: > 100 µM
[16]
  TGI: > 100 µM
[17]
  TGI: > 100 µM
[18]
  TGI: > 100 µM
[19]
  TGI: > 100 µM
[20]
  TGI: > 100 µM
[21]
  TGI: > 100 µM
[22]
  TGI: > 100 µM
[23]
  TGI: > 100 µM
[24]
  TGI: > 100 µM
[25]
  TGI: 92.7 µM
[26]
  TGI: > 100 µM
[27]
  TGI: > 100 µM
[28]
  TGI: > 100 µM
[29]
  TGI: > 100 µM
[30]
  TGI: > 100 µM
[31]
  TGI: > 100 µM
[32]
  TGI: > 100 µM
[33]
  TGI: > 100 µM
[34]
  TGI: > 100 µM
[35]
  TGI: > 100 µM
[36]
  TGI: 81.8 µM
[37]
  TGI: > 100 µM
[38]
  TGI: > 100 µM
[39]
  TGI: > 100 µM
[40]
  TGI: 66.8 µM
[41]
  TGI: 65.3 µM
[42]
  TGI: > 100 µM
[43]
  TGI: > 100 µM
[44]
  TGI: > 100 µM
[45]
  TGI: > 100 µM
[46]
  TGI: > 100 µM
[47]
  TGI: 67.6 µM
[48]
  TGI: > 100 µM
[49]
  TGI: > 100 µM
[50]
  TGI: > 100 µM
[51]
  TGI: > 100 µM
[52]
  TGI: 57.4 µM
[53]
  TGI: > 100 µM
[54]
  TGI: > 100 µM
[55]
  TGI: > 100 µM
[56]
  TGI: > 100 µM
[57]
  TGI: 81.3 µM
[58]
  TGI: > 100 µM
[59]
  TGI: > 100 µM
